Measured values taken from patent EP1650209A1, “Griseusin derivatives and their use as antitumor agents” (Oncotest GmbH, priority 2004, dated 2006).
In brackets after ≈: the same amount, converted by molar mass.

Columns and labels:
Test in all cases: Clonogenic assay, colony formation of tumor stem cells from xenografts
Assay type in all cases: cell-based, human
CEXF 633 = conditions: Cervix, xenograft CEXF 633, colony formation
Procedure: (§1) Using various human cancer xenografts in vitro, the concentrations of compound B which inhibit formation of tumor colonies of tumor stem cells by 50% (IC50) and 70% (IC70) are determined in a clonogenic assay. Specifically, each solid tumor of bladder cancer (BXF 1036 and BXF 1299), cervical cancer (CEXF 633 and CEXF 773), colic cancer (CXF 1103, CXF 158, CXF 1729, CXF 264 and CXF 280), gastric cancer (GXF 251 and GXF 97), head and neck cancer (HNXF 536), liver cancer (LIXF 575), non small cell lung cancer comprising adeno, squamous epithelium and large cell carcinoma (LXFA 1012, LXFA 289, LXFA 297, LXFA 526, LXFA 592, LXFA 629, LXFA 677, LXFE 409, LXFL 1072, LXFL 430LX and LXFL 529), small cell lung cancer (LXFS 650), mammary cancer (MAXF 1162, MAXF 1384, MAXF 401, MAXF 449, MAXF 574, MAXF 583, MAXF 713 and MAXF 857), melanoma (MEXF 1341, MEXF 462, MEXF 535 and MEXF 989), ovary cancer (OVXF 899), pancreatic cancer (PAXF 546 and PAXF 736), prostate cancer (DU-145 and PC3M), pleuramesothelioma (PXF 1752), renal cancer (RXF 1220, RXF 1393, RXF 393, RXF 631 and RXF 944LX), and sarcoma (SXF 1301 and SXF 463) engrafted on RPMI nu/nu thymus aplastic nude mice were explanted, disaggregated by mincing and enzymatic digestion for 50 minutes using 125 U/mL DNAse I, 41 U/mL collagenase IV, 100 U/ml hyaluronidase III, and 1 U/mL dispase I, and passed through sieves of 200 µm and 50 µm mesh size and washed twice with sterile PBS-buffer to remove cell aggregated from single cells. The clonogenic assay was performed in a 24 multiwell format. Each of the resulting single cell suspensions was added at a density of 2·10^4 to 6·10^4 cells per well to 0.2 ml of Iscove's Modified Dulbecco's Medium (IMDM) containing 20% fetal calf serum and 0.01% gentamicin supplemented with 0.4% (w/v) agar, and plated onto a bottom layer consisting of the same culture medium containing 0.75% (w/v) agar. After 24 hours IMDM containing 20% fetal calf serum and 0.01 % gentamicin, together with a test compound, was added there to. Then, the plate was incubated at 37°C for 10 to 20 days in a humidified atmosphere of air containing 7.5% CO2. Within this period, in vitro tumor growth led to the formation of colonies with a diameter of > 50µm. Colony counts were performed with an automatic image analysis system (OMNICON 3600). 24 hours prior to evaluation, vital colonies were stained with a vital staining dye. Therefore, 100 µl of a sterile aqueous solution of 2-(4-iodophenyl)-3-(4-nitrophenyl)-5-phenyltetrazolium chloride (1 mg/ml) were added to each well of the plate, and plates were incubated for 24 hours at 37°C in a humidified atmosphere of air containing 7.5% CO2. Inhibition of colony formation was expressed as test versus untreated control (T/C-value [%]). IC50 and IC70 values were determined by plotting compound concentration versus cell viability. Table 3: Inhibition of Colony Formation of Tumor Stem Cells by griseusin derivative B

CEXF 773 = conditions: Cervix, xenograft CEXF 773, colony formation
Procedure: as §1

LXFL 430LX = conditions: Lung, non small cell, xenograft LXFL 430LX
Procedure: as §1

MAXF 574 = conditions: Breast, xenograft MAXF 574, colony formation
Procedure: as §1

MAXF 857 = conditions: Breast, xenograft MAXF 857, colony formation
Procedure: as §1

GXF 251 = conditions: Stomach, xenograft GXF 251, colony formation
Procedure: as §1

PAXF 546 = conditions: Pancreas, xenograft PAXF 546, colony formation
Procedure: as §1

SXF 463 = conditions: Sarcoma, xenograft SXF 463, colony formation
Procedure: as §1

LXFA 1012 = conditions: Lung, non small cell, xenograft LXFA 1012, colony formation
Procedure: as §1

CXF 280 = conditions: Colon, xenograft CXF 280, colony formation
Procedure: as §1

MEXF 535 = conditions: Melanoma, xenograft MEXF 535, colony formation
Procedure: as §1

MAXF 583 = conditions: Breast, xenograft MAXF 583, colony formation
Procedure: as §1

HNXF 536 = conditions: Head and Neck, xenograft HNXF 536, colony formation
Procedure: as §1

BXF 1036 = conditions: Bladder, xenograft BXF 1036, colony formation
Procedure: as §1

RXF 944LX = conditions: Kidney, xenograft RXF 944LX
Procedure: as §1

GXF 97 = conditions: Stomach, xenograft GXF 97, colony formation
Procedure: as §1

LXFL 529 = conditions: Lung, non small cell, xenograft LXFL 529, colony formation
Procedure: as §1

MEXF 989 = conditions: Melanoma, xenograft MEXF 989, colony formation
Procedure: as §1

- IC50 (CEXF 633): 1.310 mg/L (≈ 3.27 µM)
- IC50 (CEXF 773): 1.936 mg/L (≈ 4.84 µM)
- IC50 (LXFL 430LX): 0.272 mg/L (≈ 0.679 µM)
- IC50 (MAXF 574): 0.335 mg/L (≈ 0.837 µM)
- IC50 (MAXF 857): 1.449 mg/L (≈ 3.62 µM)
- IC50 (GXF 251): 0.333 mg/L (≈ 0.832 µM)
- IC50 (PAXF 546): 0.168 mg/L (≈ 0.42 µM)
- IC50 (SXF 463): 0.235 mg/L (≈ 0.587 µM)
- IC50 (LXFA 1012): 0.442 mg/L (≈ 1.1 µM)
- IC50 (CXF 280): 0.379 mg/L (≈ 0.947 µM)
- IC50 (MEXF 535): 0.055 mg/L (≈ 0.137 µM)
- IC50 (MAXF 583): 0.078 mg/L (≈ 0.195 µM)
- IC50 (HNXF 536): 0.350 mg/L (≈ 0.874 µM)
- IC50 (BXF 1036): 1.743 mg/L (≈ 4.35 µM)
- IC50 (RXF 944LX): 0.116 mg/L (≈ 0.29 µM)
- IC50 (GXF 97): 0.300 mg/L (≈ 0.749 µM)
- IC50 (LXFL 529): 0.364 mg/L (≈ 0.909 µM)
- IC50 (MEXF 989): 0.118 mg/L (≈ 0.295 µM)
Compound: C[C@@H]1CC(=O)[C@@H](O)[C@]2(O1)O[C@@H]1CC(=O)O[C@@H]1C1=C2C(=O)c2c(O)cccc2C1=O [Compound B, 4'-dehydro-deacetylgriseusin A]
- IC70 (CEXF 633): 1.837 mg/L (≈ 4.59 µM)
- IC70 (CEXF 773): 2.333 mg/L (≈ 5.83 µM)
- IC70 (LXFL 430LX): 0.468 mg/L (≈ 1.17 µM)
- IC70 (MAXF 574): 0.523 mg/L (≈ 1.31 µM)
- IC70 (MAXF 857): 1.975 mg/L (≈ 4.93 µM)
- IC70 (GXF 251): 0.677 mg/L (≈ 1.69 µM)
- IC70 (PAXF 546): 0.420 mg/L (≈ 1.05 µM)
- IC70 (SXF 463): 0.334 mg/L (≈ 0.834 µM)
- IC70 (LXFA 1012): 0.631 mg/L (≈ 1.58 µM)
- IC70 (CXF 280): 0.609 mg/L (≈ 1.52 µM)
- IC70 (MEXF 535): 0.094 mg/L (≈ 0.235 µM)
- IC70 (MAXF 583): 0.195 mg/L (≈ 0.487 µM)
- IC70 (HNXF 536): 0.547 mg/L (≈ 1.37 µM)
- IC70 (BXF 1036): 2.271 mg/L (≈ 5.67 µM)
- IC70 (RXF 944LX): 0.171 mg/L (≈ 0.427 µM)
- IC70 (GXF 97): 0.495 mg/L (≈ 1.24 µM)
- IC70 (LXFL 529): 0.699 mg/L (≈ 1.75 µM)
- IC70 (MEXF 989): 0.182 mg/L (≈ 0.455 µM)
